Reference: PubChem BioAssay AID336 (DTP/NCI, 2004)
Several values for one entry are separate records, joined by “and”; a condition that tells them apart may be missing. Equal values may be shown once. Toxic doses and inconclusive results are not listed.

System: BDF1 mice, P388/VCR leukemia ip, median survival T/C
Test: NCI In Vivo Anticancer Drug Screen. Data for tumor model P388 Leukemia resistant to Vincristine; NSC 67574 (intraperitoneal) in B6D2F1 (BDF1) mice
Settings: endpoint: median survival time, higher = longer survival
Procedure: The antitumor activity of compounds was measured in mice bearing transplantable tumors. Survival or tumor size were measured and the results are expressed as the measurement made in the treated group (T) divided by the measurement made in the vehicle treated control group (C). The tumor model used in this assay is P388 Leukemia resistant to Vincristine; NSC 67574 (intraperitoneal) in B6D2F1 (BDF1) mice

[1] = dose: 31.3 mg/kg/injection, schedule: Q01DX010 (ip), vehicle: saline
[2] = dose: 125.0 mg/kg/injection, schedule: Q01DX010 (ip), vehicle: saline
[3] = dose: 250.0 mg/kg/injection, schedule: Q01DX010 (ip), vehicle: saline
[4] = dose: 12.5 mg/kg/injection, schedule: Q01DX010 (sc), vehicle: steriod suspending solution
[5] = dose: 25.0 mg/kg/injection, schedule: Q01DX010 (sc), vehicle: steriod suspending solution
[6] = dose: 50.0 mg/kg/injection, schedule: Q01DX010 (sc), vehicle: steriod suspending solution
[7] = dose: 100.0 mg/kg/injection, schedule: Q01DX010 (sc), vehicle: steriod suspending solution
[8] = dose: 62.5 mg/kg/injection, schedule: Q01DX010 (ip), vehicle: saline

CO[C@H]1Nc2c(ccc(C)c2O)C(=O)N2C=C(/C=C/C(N)=O)C[C@@H]12
T/C (dose: 151.0 micrograms/kg/injection, schedule: Q04DX003 (ip), vehicle: saline + alcohol): 113 % of control | T/C (dose: 360.0 micrograms/kg/injection, schedule: Q04DX003 (ip), vehicle: saline + alcohol): 122 % of control

CCOC(=O)NP(=O)(N1CC1(C)C)N1CC1(C)C (stereo not drawn)
T/C [1]: 117 % of control | T/C [2]: 185 % of control | T/C [3]: 246 % of control

S=P(N1CCOCC1)(N1CC1)N1CC1
T/C (dose: 2.5 mg/kg/injection, schedule: Q01DX010 (ip), vehicle: saline): 104 % of control and 109 % of control | T/C (dose: 5.0 mg/kg/injection, schedule: Q01DX010 (ip), vehicle: saline): 100 % of control and 109 % of control | T/C (dose: 10.0 mg/kg/injection, schedule: Q01DX010 (ip), vehicle: saline): 100 % of control and 122 % of control | T/C (dose: 20.0 mg/kg/injection, schedule: Q01DX010 (ip), vehicle: saline): 86 % of control and 90 % of control

O=C(Nc1ccc(C2=NCCN2)cc1)c1ccc(C(=O)Nc2ccc(C3=NCCN3)cc2)c(F)c1
T/C (dose: 22.5 mg/kg/injection, schedule: Q01DX010 (ip), vehicle: saline): 100 % of control | T/C (dose: 45.0 mg/kg/injection, schedule: Q01DX010 (ip), vehicle: saline): 107 % of control | T/C (dose: 90.0 mg/kg/injection, schedule: Q01DX010 (ip), vehicle: saline): 123 % of control

CC1CN=C(c2ccc(NC(=O)c3ccc(C(=O)Nc4ccc(C5=NCC(C)N5)cc4)cc3)cc2)N1 (stereo not drawn)
T/C (dose: 22.0 mg/kg/injection, schedule: Q01DX010 (ip), vehicle: saline): 113 % of control | T/C (dose: 33.0 mg/kg/injection, schedule: Q01DX010 (ip), vehicle: saline): 109 % of control

CC1CN=C(c2ccc(NC(=O)c3cccc(C(=O)Nc4ccc(C5=NCC(C)N5)cc4)c3)cc2)N1 (stereo not drawn)
T/C (dose: 12.0 mg/kg/injection, schedule: Q01DX010 (ip), vehicle: saline): 104 % of control | T/C (dose: 18.0 mg/kg/injection, schedule: Q01DX010 (ip), vehicle: saline): 117 % of control | T/C (dose: 27.0 mg/kg/injection, schedule: Q01DX010 (ip), vehicle: saline): 104 % of control | T/C (dose: 40.0 mg/kg/injection, schedule: Q01DX010 (ip), vehicle: saline): 108 % of control

CC/C(=C(/CC)c1ccc(O)cc1)c1ccc(O)cc1
T/C [4]: 88 % of control and 111 % of control | T/C [5]: 103 % of control | T/C [6]: 100 % of control | T/C [7]: 103 % of control

O=C1N[C@@H]([C@H]2CC[C@H](Cl)CN2)C(=O)N[C@H]1[C@H]1CC[C@H](Cl)CN1
T/C (dose: 2.4 mg/kg/injection, schedule: Q04DX003 (ip), vehicle: saline): 212 % of control | T/C (dose: 4.0 mg/kg/injection, schedule: Q04DX003 (ip), vehicle: saline): 225 % of control

CC(=O)O[C@H]1C(=O)[C@@]2(C)[C@H]([C@H](OC(=O)c3ccccc3)[C@]3(O)C[C@H](OC(=O)[C@H](O)[C@@H](NC(=O)c4ccccc4)c4ccccc4)C(C)=C1C3(C)C)[C@]1(OC(C)=O)CO[C@@H]1C[C@@H]2O
T/C (dose: 21.6 mg/kg/injection, schedule: Q04DX003 (ip), vehicle: Klucel (hydroxypropylcellulose) (HPC)): 98 % of control | T/C (dose: 36.0 mg/kg/injection, schedule: Q04DX003 (ip), vehicle: Klucel (hydroxypropylcellulose) (HPC)): 93 % of control | T/C (dose: 60.0 mg/kg/injection, schedule: Q04DX003 (ip), vehicle: Klucel (hydroxypropylcellulose) (HPC)): 87 % of control

C[n+]1ccc(Nc2ccc(NC(=O)c3ccc(Nc4cc[n+](C)c5ccc(N)cc45)cc3)cc2)cc1
T/C (dose: 3.24 mg/kg/injection, schedule: Q04DX003 (ip), vehicle: water): 116 % of control

O=C1CCC(N2C(=O)c3ccccc3C2=O)C(=O)N1 (stereo not drawn)
T/C [8]: 95 % of control | T/C [2]: 91 % of control

C[C@]12C=CC(=O)C=C1CC[C@@H]1[C@@H]2[C@@H](O)C[C@@]2(C)[C@H]1CC[C@]2(O)C(=O)CO
T/C [4]: 107 % of control and 116 % of control | T/C [5]: 103 % of control and 116 % of control | T/C [6]: 103 % of control and 120 % of control | T/C [7]: 108 % of control and 111 % of control

CS(=O)(=O)OCCCl
T/C (dose: 37.5 mg/kg/injection, schedule: Q01DX010 (ip), vehicle: saline): 95 % of control and 100 % of control | T/C (dose: 75.0 mg/kg/injection, schedule: Q01DX010 (ip), vehicle: saline): 95 % of control and 100 % of control

O=C(Nc1ccc(C2=NCCN2)cc1)c1ccc(C(=O)Nc2ccc(C3=NCCN3)cc2)cc1
T/C (dose: 112.0 mg/kg/injection, schedule: Q01DX010 (ip), vehicle: saline): 156 % of control | T/C (dose: 167.0 mg/kg/injection, schedule: Q01DX010 (ip), vehicle: saline): 173 % of control | T/C [3]: 178 % of control

CCCSc1ncnc2nc[nH]c12
T/C [1]: 95 % of control | T/C [8]: 95 % of control | T/C [2]: 88 % of control and 95 % of control | T/C [3]: 95 % of control
